In ChEMBL document CHEMBL3885881, “DrugMatrix”:

Species: Rattus norvegicus
Test: DrugMatrix - Regimen: Daily Repeat
Assay type: toxicity, organism-based, Sprague-Dawley
Design: regimen Daily Repeat, gender Male, age 6-8 weeks
Conditions: in vivo, po, route oral GAVAGE, […]; for ABSOLUTE BASOPHIL / ABSOLUTE EOSINOPHIL / ABSOLUTE LYMPHOCYTE / ABSOLUTE MONOCYTE / ABSOLUTE SEGMENTED NEUTROPHIL / BASOPHIL / EOSINOPHIL / ERYTHROCYTE COUNT / HEMATOCRIT / HEMOGLOBIN / LEUKOCYTE COUNT / LYMPHOCYTE / MEAN CORPUSCULAR HEMOGLOBIN / MEAN CORPUSCULAR HEMOGLOBIN CONCENTRATION / MEAN CORPUSCULAR VOLUME / MONOCYTE / NEUTROPHIL / NUCLEATED RED BLOOD CELLS / PLATELET COUNT: tissue Blood; for ALANINE AMINOTRANSFERASE / ALBUMIN / ALKALINE PHOSPHATASE / ASPARTATE AMINOTRANSFERASE / BLOOD UREA NITROGEN / CARBON DIOXIDE / CHLORIDE / CHOLESTEROL / CREATINE PHOSPHOKINASE / CREATININE / GLUCOSE / LACTATE DEHYDROGENASE / LIPASE / PHOSPHORUS / POTASSIUM / SODIUM / TOTAL BILIRUBIN / TOTAL PROTEIN / URIC ACID: tissue Plasma
[1] = 5 mg/kg, 120 h, dose level Low, time 5 day
[2] = 13 mg/kg, 72 h, dose level High, time 3 day
[3] = 13 mg/kg, 120 h, dose level High, time 5 day

In the case of `O=c1oc2ccccc2c(O)c1Cc1c(O)c2ccccc2oc1=O` [DICUMAROL], the “ABSOLUTE BASOPHIL” value [1] is reported as 0 CELLS/uL, the “ABSOLUTE EOSINOPHIL” value [1] is reported as 23.33 CELLS/uL and the “ABSOLUTE LYMPHOCYTE” value [1] is reported as 6534.33 CELLS/uL. The “ABSOLUTE MONOCYTE” value [1] was 0 CELLS/uL, the “ABSOLUTE SEGMENTED NEUTROPHIL” value [1] was 809 CELLS/uL and the BASOPHIL [1] was 0%. For the same compound, the EOSINOPHIL [1] was 0.33%, the “ERYTHROCYTE COUNT” value [1] was 5.38 x10E6/uL and the HEMATOCRIT [1] was 33.9%. For the same compound, the HEMOGLOBIN [1] was 13.03 G/DL, the “LEUKOCYTE COUNT” value [1] was 7.37 x10E3/uL and the LYMPHOCYTE [1] was 88.67%. The “MEAN CORPUSCULAR HEMOGLOBIN” value [1] was 24.27 pg, the “MEAN CORPUSCULAR HEMOGLOBIN CONCENTRATION” value [1] was 38.47 G/DL and the “MEAN CORPUSCULAR VOLUME” value [1] was 63 fL. The MONOCYTE [1] was 0%, the NEUTROPHIL [1] was 11% and the “NUCLEATED RED BLOOD CELLS” value [1] was 0 /100WBC. The “PLATELET COUNT” value [1] was 1062 x10E3/uL, the “ALANINE AMINOTRANSFERASE” value [1] was 70.33 u/L and the ALBUMIN [1] was 4.17 G/DL. For the same compound, the “ALKALINE PHOSPHATASE” value [1] was 492.33 u/L, the “ASPARTATE AMINOTRANSFERASE” value [1] was 90.67 u/L and the “BLOOD UREA NITROGEN” value [1] was 13.67 mg/dL. For the same compound, the “CARBON DIOXIDE” value [1] was 31.67 mmol/L, the CHLORIDE [1] was 100 MEQ/L and the CHOLESTEROL [1] was 66.67 mg/dL. The “CREATINE PHOSPHOKINASE” value [1] was 491.67 u/L, the CREATININE [1] was 0.15 mg/dL and the GLUCOSE [1] was 160.33 mg/dL. The “LACTATE DEHYDROGENASE” value [1] was 134.33 u/L, the LIPASE [1] was 9.33 u/L and the PHOSPHORUS [1] was 9.47 mg/dL. The POTASSIUM [1] was 5.06 MEQ/L, the SODIUM [1] was 142.1 MEQ/L and the “TOTAL BILIRUBIN” value [1] was 0.17 mg/dL. For the same compound, the “TOTAL PROTEIN” value [1] was 6.07 G/DL, the “URIC ACID” value [1] was 0.43 mg/dL and the “ABSOLUTE BASOPHIL” value [2] was 0 CELLS/uL. The “ABSOLUTE EOSINOPHIL” value [2] was 43.33 CELLS/uL, the “ABSOLUTE LYMPHOCYTE” value [2] was 9740.67 CELLS/uL and the “ABSOLUTE MONOCYTE” value [2] was 39.67 CELLS/uL. For the same compound, the “ABSOLUTE SEGMENTED NEUTROPHIL” value [2] was 443 CELLS/uL, the BASOPHIL [2] was 0% and the EOSINOPHIL [2] was 0.33%. For the same compound, the “ERYTHROCYTE COUNT” value [2] was 5.24 x10E6/uL, the HEMATOCRIT [2] was 32.97% and the HEMOGLOBIN [2] was 12.9 G/DL. For the same compound, the “LEUKOCYTE COUNT” value [2] was 10.27 x10E3/uL, the LYMPHOCYTE [2] was 95% and the “MEAN CORPUSCULAR HEMOGLOBIN” value [2] was 24.7 pg. The “MEAN CORPUSCULAR HEMOGLOBIN CONCENTRATION” value [2] was 39.13 G/DL, the “MEAN CORPUSCULAR VOLUME” value [2] was 63.17 fL and the MONOCYTE [2] was 0.33%. For the same compound, the NEUTROPHIL [2] was 4.33%, the “NUCLEATED RED BLOOD CELLS” value [2] was 0 /100WBC and the “PLATELET COUNT” value [2] was 923.67 x10E3/uL. The “ALANINE AMINOTRANSFERASE” value [2] was 65 u/L, the ALBUMIN [2] was 3.83 G/DL and the “ALKALINE PHOSPHATASE” value [2] was 374.33 u/L. The “ASPARTATE AMINOTRANSFERASE” value [2] was 87.33 u/L, the “BLOOD UREA NITROGEN” value [2] was 11 mg/dL and the “CARBON DIOXIDE” value [2] was 35.33 mmol/L. The CHLORIDE [2] was 98 MEQ/L, the CHOLESTEROL [2] was 72 mg/dL and the “CREATINE PHOSPHOKINASE” value [2] was 494.33 u/L. The CREATININE [2] was 0.14 mg/dL, the GLUCOSE [2] was 143.67 mg/dL and the “LACTATE DEHYDROGENASE” value [2] was 159.67 u/L. The LIPASE [2] was 9.33 u/L, the PHOSPHORUS [2] was 11.1 mg/dL and the POTASSIUM [2] was 6.17 MEQ/L. The SODIUM [2] was 142.53 MEQ/L, the “TOTAL BILIRUBIN” value [2] was 0.17 mg/dL and the “TOTAL PROTEIN” value [2] was 5.83 G/DL. For the same compound, the “URIC ACID” value [2] was 0.5 mg/dL, the “ABSOLUTE BASOPHIL” value [3] was 0 CELLS/uL and the “ABSOLUTE EOSINOPHIL” value [3] was 0 CELLS/uL. The “ABSOLUTE LYMPHOCYTE” value [3] was 5152 CELLS/uL, the “ABSOLUTE MONOCYTE” value [3] was 45 CELLS/uL and the “ABSOLUTE SEGMENTED NEUTROPHIL” value [3] was 403 CELLS/uL. The BASOPHIL [3] was 0%, the EOSINOPHIL [3] was 0% and the “ERYTHROCYTE COUNT” value [3] was 5.48 x10E6/uL. The HEMATOCRIT [3] was 33.3%, the HEMOGLOBIN [3] was 12.65 G/DL and the “LEUKOCYTE COUNT” value [3] was 5.6 x10E3/uL. For the same compound, the LYMPHOCYTE [3] was 92%, the “MEAN CORPUSCULAR HEMOGLOBIN” value [3] was 23.1 pg and the “MEAN CORPUSCULAR HEMOGLOBIN CONCENTRATION” value [3] was 38 G/DL. The “MEAN CORPUSCULAR VOLUME” value [3] was 60.75 fL, the MONOCYTE [3] was 1% and the NEUTROPHIL [3] was 7%. For the same compound, the “NUCLEATED RED BLOOD CELLS” value [3] was 1 /100WBC, the “PLATELET COUNT” value [3] was 1032 x10E3/uL and the “ALANINE AMINOTRANSFERASE” value [3] was 67.5 u/L. For the same compound, the ALBUMIN [3] was 3.85 G/DL, the “ALKALINE PHOSPHATASE” value [3] was 329.5 u/L and the “ASPARTATE AMINOTRANSFERASE” value [3] was 96 u/L. For the same compound, the “BLOOD UREA NITROGEN” value [3] was 13 mg/dL, the “CARBON DIOXIDE” value [3] was 32.5 mmol/L and the CHLORIDE [3] was 100 MEQ/L. The CHOLESTEROL [3] was 64 mg/dL, the “CREATINE PHOSPHOKINASE” value [3] was 628 u/L and the CREATININE [3] was 0.18 mg/dL. For the same compound, the GLUCOSE [3] was 150.5 mg/dL, the “LACTATE DEHYDROGENASE” value [3] was 133 u/L and the LIPASE [3] was 11 u/L. It also gave a PHOSPHORUS [3] of 9.75 mg/dL, a POTASSIUM [3] of 5.09 MEQ/L and an SODIUM [3] of 145.4 MEQ/L. For the same compound, the “TOTAL BILIRUBIN” value [3] was 0.15 mg/dL, the “TOTAL PROTEIN” value [3] was 6 G/DL and the “URIC ACID” value [3] was 0.45 mg/dL.
